# Earlier results as cited in patent US10512655B1, “Methods and compositions for the topical treatment of peripheral neuropathy” (Jeffrey S. Brooks, Inc., priority 2013, dated 2019).
# Key:
# [1] = test system: patients with type 1 diabetes; details: oral, 300 mg/day over 24 months
# [2] = test system: patients suffering from DPN; details: topical, KY gel non-occlusive vehicle
Structure (SMILES),effects upon peripheral nerve function or soluble markers of inflammation [1],pain relief [2]
"C/C(=C(\CCOP(=O)(O)O)SC(=O)c1ccccc1)N(C=O)Cc1cnc(C)nc1N [benfotiamine, Benfotiamine]",no significant effects,–
CN1CC[C@]23c4c5ccc(O)c4O[C@H]2[C@@H](O)C=C[C@H]3[C@H]1C5 [morphine],–,no pain relief
